In ChEMBL document CHEMBL3784933, “Synthesis and antitumor evaluation of trimethoxyanilides based on 4(3H)-quinazolinone scaffolds” (2016):

Legend:
Format in all cases: functional
[1] = Cytotoxicity against human NCI-ADR-RES cells assessed as growth inhibition at 10 uM after 48 hrs by SRB assay; conditions: read-out: GI
[2] = test system: SK-MEL-5; experiment: Cytotoxicity against human SK-MEL-5 cells assessed as growth inhibition at 10 uM after 48 hrs by SRB assay; conditions: SK-MEL-5, 48 h, read-out: GI
[3] = Cytotoxicity against human RPMI8226 cells assessed as growth inhibition at 10 uM after 48 hrs by SRB assay; conditions: RPMI-8226, 48 h, read-out: GI
[4] = test system: NCI-H226; experiment: Cytotoxicity against human NCI-H226 cells assessed as growth inhibition at 10 uM after 48 hrs by SRB assay; conditions: NCI-H226, 48 h, read-out: GI
[5] = Cytotoxicity against human SF295 cells assessed as growth inhibition at 10 uM after 48 hrs by SRB assay; conditions: SF-295, 48 h, read-out: GI
[6] = test system: SR; experiment: Cytotoxicity against human SR cells assessed as growth inhibition at 10 uM after 48 hrs by SRB assay; conditions: read-out: GI
[7] = Cytotoxicity against human SKOV3 cells assessed as growth inhibition at 10 uM after 48 hrs by SRB assay; conditions: SK-OV-3, 48 h, read-out: GI
[8] = Cytotoxicity against human UACC62 cells assessed as growth inhibition at 10 uM after 48 hrs by SRB assay; conditions: UACC-62, 48 h, read-out: GI
[9] = Cytotoxicity against human UACC257 cells assessed as growth inhibition at 10 uM after 48 hrs by SRB assay; conditions: UACC-257, 48 h, read-out: GI
[10] = Cytotoxicity against human DU145 cells assessed as growth inhibition at 10 uM after 48 hrs by SRB assay; conditions: DU-145, 48 h, read-out: GI
[11] = test system: NCI-H23; experiment: Cytotoxicity against human NCI-H23 cells assessed as growth inhibition at 10 uM after 48 hrs by SRB assay; conditions: NCI-H23, 48 h, read-out: GI
[12] = test system: A498; experiment: Cytotoxicity against human A498 cells assessed as growth inhibition at 10 uM after 48 hrs by SRB assay; conditions: A498, 48 h, read-out: GI
[13] = Cytotoxicity against human OVCAR4 cells assessed as growth inhibition at 10 uM after 48 hrs by SRB assay; conditions: OVCAR-4, 48 h, read-out: GI
[14] = Cytotoxicity against human PC3 cells assessed as growth inhibition at 10 uM after 48 hrs by SRB assay; conditions: PC-3, 48 h, read-out: GI
[15] = test system: MDA-MB-231; experiment: Cytotoxicity against human MDA-MB-231 cells assessed as growth inhibition at 10 uM after 48 hrs by SRB assay; conditions: MDA-MB-231, 48 h, read-out: GI
[16] = Cytotoxicity against human HOP92 cells assessed as growth inhibition at 10 uM after 48 hrs by SRB assay; conditions: HOP-92, 48 h, read-out: GI
[17] = Cytotoxicity against human IGROV1 cells assessed as growth inhibition at 10 uM after 48 hrs by SRB assay; conditions: IGROV-1, 48 h, read-out: GI
[18] = test system: NCI-H460; experiment: Cytotoxicity against human NCI-H460 cells assessed as growth inhibition at 10 uM after 48 hrs by SRB assay; conditions: NCI-H460, 48 h, read-out: GI
[19] = Cytotoxicity against human HCT116 cells assessed as growth inhibition at 10 uM after 48 hrs by SRB assay; conditions: HCT-116, 48 h, read-out: GI
[20] = test system: T47D; experiment: Cytotoxicity against human T47D cells assessed as growth inhibition at 10 uM after 48 hrs by SRB assay; conditions: read-out: GI
[21] = test system: A549; experiment: Cytotoxicity against human A549 cells assessed as growth inhibition at 10 uM after 48 hrs by SRB assay; conditions: A549, 48 h, read-out: GI
[22] = test system: MCF7; experiment: Cytotoxicity against human MCF7 cells assessed as growth inhibition at 10 uM after 48 hrs by SRB assay; conditions: MCF7, 48 h, read-out: GI
[23] = test system: MDA-MB-468; experiment: Cytotoxicity against human MDA-MB-468 cells assessed as growth inhibition at 10 uM after 48 hrs by SRB assay; conditions: MDA-MB-468, 48 h, read-out: GI
[24] = test system: ACHN; experiment: Cytotoxicity against human ACHN cells assessed as growth inhibition at 10 uM after 48 hrs by SRB assay; conditions: read-out: GI
[25] = Cytotoxicity against human BT549 cells assessed as growth inhibition at 10 uM after 48 hrs by SRB assay; conditions: BT-549, 48 h, read-out: GI
[26] = Cytotoxicity against human SNB75 cells assessed as growth inhibition at 10 uM after 48 hrs by SRB assay; conditions: SNB-75, 48 h, read-out: GI
[27] = test system: Malme-3M; experiment: Cytotoxicity against human MALME-3M cells assessed as growth inhibition at 10 uM after 48 hrs by SRB assay; conditions: read-out: GI
[28] = Cytotoxicity against human RXF393 cells assessed as growth inhibition at 10 uM after 48 hrs by SRB assay; conditions: RXF 393, 48 h, read-out: GI
[29] = Cytotoxicity against human LOXIMVI cells assessed as growth inhibition at 10 uM after 48 hrs by SRB assay; conditions: LOX IMVI, read-out: GI
[30] = Cytotoxicity against human SNB19 cells assessed as growth inhibition at 10 uM after 48 hrs by SRB assay; conditions: SNB-19, 48 h, read-out: GI
[31] = test system: CCRF-CEM; experiment: Cytotoxicity against human CCRF-CEM cells assessed as growth inhibition at 10 uM after 48 hrs by SRB assay; conditions: read-out: GI
[32] = Cytotoxicity against human Caki1 cells assessed as growth inhibition at 10 uM after 48 hrs by SRB assay; conditions: CAKI-1, 48 h, read-out: GI
[33] = Cytotoxicity against human OVCAR3 cells assessed as growth inhibition at 10 uM after 48 hrs by SRB assay; conditions: OVCAR-3, 48 h, read-out: GI
[34] = Cytotoxicity against human HOP62 cells assessed as growth inhibition at 10 uM after 48 hrs by SRB assay; conditions: HOP-62, 48 h, read-out: GI
[35] = test system: U-251; experiment: Cytotoxicity against human U251 cells assessed as growth inhibition at 10 uM after 48 hrs by SRB assay; conditions: U-251, 48 h, read-out: GI
[36] = test system: SN12C; experiment: Cytotoxicity against human SN12C cells assessed as growth inhibition at 10 uM after 48 hrs by SRB assay; conditions: read-out: GI
[37] = Cytotoxicity against human SF268 cells assessed as growth inhibition at 10 uM after 48 hrs by SRB assay; conditions: SF-268, 48 h, read-out: GI
[38] = test system: NCI-H522; experiment: Cytotoxicity against human NCI-H522 cells assessed as growth inhibition at 10 uM after 48 hrs by SRB assay; conditions: NCI-H522, 48 h, read-out: GI
[39] = Cytotoxicity against human UO31 cells assessed as growth inhibition at 10 uM after 48 hrs by SRB assay; conditions: UO-31, 48 h, read-out: GI
[40] = Cytotoxicity against human SF539 cells assessed as growth inhibition at 10 uM after 48 hrs by SRB assay; conditions: SF-539, 48 h, read-out: GI
[41] = Cytotoxicity against human NCI-H322 cells assessed as growth inhibition at 10 uM after 48 hrs by SRB assay; conditions: NCI-H322, 48 h, read-out: GI
[42] = Cytotoxicity against human OVCAR8 cells assessed as growth inhibition at 10 uM after 48 hrs by SRB assay; conditions: OVCAR-8, 48 h, read-out: GI
[43] = test system: SK-MEL-2; experiment: Cytotoxicity against human SK-MEL-2 cells assessed as growth inhibition at 10 uM after 48 hrs by SRB assay; conditions: SK-MEL-2, 48 h, read-out: GI
[44] = Cytotoxicity against human OVCAR5 cells assessed as growth inhibition at 10 uM after 48 hrs by SRB assay; conditions: OVCAR-5, 48 h, read-out: GI
[45] = test system: 786-0; experiment: Cytotoxicity against human 786-0 cells assessed as growth inhibition at 10 uM after 48 hrs by SRB assay; conditions: 786-0, 48 h, read-out: GI
[46] = Cytotoxicity against human Hs 578T cells assessed as growth inhibition at 10 uM after 48 hrs by SRB assay; conditions: read-out: GI
[47] = test system: K562; experiment: Cytotoxicity against human K562 cells assessed as growth inhibition at 10 uM after 48 hrs by SRB assay; conditions: K562, 48 h, read-out: GI
[48] = Cytotoxicity against human MOLT4 cells assessed as growth inhibition at 10 uM after 48 hrs by SRB assay; conditions: MOLT-4, 48 h, read-out: GI
[49] = test system: NCI-H322M; experiment: Cytotoxicity against human NCI-H322M cells assessed as growth inhibition at 10 uM after 48 hrs by SRB assay; conditions: read-out: GI
[50] = Cytotoxicity against human SW620 cells assessed as growth inhibition at 10 uM after 48 hrs by SRB assay; conditions: SW-620, 48 h, read-out: GI

COc1cc(NC(=O)CCSc2nc3ccccc3c(=O)n2-c2ccc(F)cc2)cc(OC)c1OC
inhibition of growth at 10 µM [1]: 28% | inhibition of growth at 10 µM [2]: 11% | inhibition of growth at 10 µM [3]: 17% | inhibition of growth at 10 µM [4]: 38% | inhibition of growth at 10 µM [5]: 40% | inhibition of growth at 10 µM [6]: 11% | inhibition of growth at 10 µM [7]: 70% | inhibition of growth at 10 µM [8]: 32% | inhibition of growth at 10 µM [9]: 15% | inhibition of growth at 10 µM [10]: 21% | inhibition of growth at 10 µM [11]: 21% | inhibition of growth at 10 µM [12]: 22% | inhibition of growth at 10 µM [13]: 104% | inhibition of growth at 10 µM [14]: 25% | inhibition of growth at 10 µM [15]: 47% | inhibition of growth at 10 µM [16]: 103% | inhibition of growth at 10 µM [17]: 25% | inhibition of growth at 10 µM [18]: 18% | inhibition of growth at 10 µM [19]: 30% | inhibition of growth at 10 µM [20]: 39% | inhibition of growth at 10 µM [21]: 28% | inhibition of growth at 10 µM [22]: 22% | inhibition of growth at 10 µM [23]: 21% | inhibition of growth at 10 µM [24]: 39% | inhibition of growth at 10 µM [25]: 28% | inhibition of growth at 10 µM [26]: 117% | inhibition of growth at 10 µM [27]: 40% | inhibition of growth at 10 µM [28]: 40% | inhibition of growth at 10 µM [29]: 12% | inhibition of growth at 10 µM [30]: 32% | inhibition of growth at 10 µM [31]: 67% | inhibition of growth at 10 µM [32]: 22% | inhibition of growth at 10 µM [33]: 18% | inhibition of growth at 10 µM [34]: 40% | inhibition of growth at 10 µM [35]: 42% | inhibition of growth at 10 µM [36]: 20% | inhibition of growth at 10 µM [37]: 34% | inhibition of growth at 10 µM [38]: 68% | inhibition of growth at 10 µM [39]: 23% | inhibition of growth at 10 µM [40]: 34% | inhibition of growth at 10 µM [41]: 14% | inhibition of growth at 10 µM [42]: 61% | inhibition of growth at 10 µM [43]: 47%

COc1cc(NC(=O)CCSc2nc3ccc(C)cc3c(=O)n2-c2ccccc2)cc(OC)c1OC
inhibition of growth at 10 µM [1]: 26% | inhibition of growth at 10 µM [44]: 12% | inhibition of growth at 10 µM [45]: 21% | inhibition of growth at 10 µM [3]: 27% | inhibition of growth at 10 µM [5]: 13% | inhibition of growth at 10 µM [46]: 14% | inhibition of growth at 10 µM [8]: 24% | inhibition of growth at 10 µM [12]: 45% | inhibition of growth at 10 µM [13]: 23% | inhibition of growth at 10 µM [14]: 36% | inhibition of growth at 10 µM [15]: 53% | inhibition of growth at 10 µM [16]: 40% | inhibition of growth at 10 µM [19]: 16% | inhibition of growth at 10 µM [20]: 19% | inhibition of growth at 10 µM [21]: 15% | inhibition of growth at 10 µM [47]: 10% | inhibition of growth at 10 µM [24]: 24% | inhibition of growth at 10 µM [25]: 12% | inhibition of growth at 10 µM [26]: 50% | inhibition of growth at 10 µM [48]: 43% | inhibition of growth at 10 µM [27]: 13% | inhibition of growth at 10 µM [28]: 29% | inhibition of growth at 10 µM [29]: 62% | inhibition of growth at 10 µM [49]: 19% | inhibition of growth at 10 µM [30]: 17% | inhibition of growth at 10 µM [31]: 35% | inhibition of growth at 10 µM [32]: 29% | inhibition of growth at 10 µM [50]: 13% | inhibition of growth at 10 µM [35]: 20% | inhibition of growth at 10 µM [36]: 17% | inhibition of growth at 10 µM [37]: 34% | inhibition of growth at 10 µM [38]: 80% | inhibition of growth at 10 µM [39]: 47% | inhibition of growth at 10 µM [40]: 17% | inhibition of growth at 10 µM [42]: 16%
